# Entries after “also recorded” stand apart in the source; their conditions may differ. Read-outs that look alike come from different tables or passages of the source.
# What was measured:
# mD4-VV hybrid virus [1] = test: microbe, parasite or virus in culture; assay type: cell-based, vaccinia hybrid virus containing mD4 of MCV; details: for EC50: Hybrid virus
# mD4-VV hybrid virus [2] = assay type: cell-based, vaccinia hybrid virus containing mD4 of MCV
# mD4 [3] = molecular target: T1, mD4 (Molluscum contagiosum virus, UniProt Q98260); test: Thermal shift (differential scanning fluorimetry) assay with purified 6His-mD4; assay type: binding; details: difference to DMSO mock treatment
# T1 sequence (Q98260 1-226): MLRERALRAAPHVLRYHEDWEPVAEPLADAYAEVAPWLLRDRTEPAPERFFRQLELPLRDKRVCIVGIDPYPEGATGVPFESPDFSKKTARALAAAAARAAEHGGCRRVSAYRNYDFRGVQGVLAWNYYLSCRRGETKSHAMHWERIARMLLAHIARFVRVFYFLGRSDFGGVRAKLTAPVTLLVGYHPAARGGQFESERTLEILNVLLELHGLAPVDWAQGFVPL
# Protocol: Thermal shift assay. Thermal shift (differential scanning fluorimetry) assay was performed as previously described. Briefly, 5 μM purified 6His-mD4 was mixed with compounds in thin-wall PCR 96-plate wells at 20 μL total volume containing 25 mM phosphate buffer (pH 6.8), 0.2 M NaCl, 2.5% glycerol, 2% DMSO, 0.005% (w/v) Triton-X100, and 1× Sypro Orange. Fluorescence intensities were monitored using the Applied Biosystems 7500 Fast Real-Time PCR system (Carlsbad, Calif.) at 582 nm from 25-80 ° C. at a rate of 1° C./min To generate melting temperature (Tm), protein melting curves were plotted on GraphPad Prism and fitted to the Boltzmann sigmoidal model. Thermal shift (ΔTm) is the difference between the 2% DMSO mock-treatment and inhibitor treatment. All experiments were duplicated and repeated independently.
# BSC-1 cells = details: as previously determined; read-out: cytotoxicity CC50 on BSC-1 cells; cited from earlier work
# [4] = molecular target: mD4-dependent processive DNA synthesis (6His-mD4, vA20 and vE9) (Molluscum contagiosum virus, UniProt Q98260); test: biochemical; set-up: species or system molluscum contagiosum virus / vaccinia virus
# mD4-dependent processive DNA synthesis (6His-mD4, vA20 and vE9), sequence (Q98260 1-226): as above
# vD4-VV rescue virus = test: microbe, parasite or virus in culture; assay type: cell-based; details: Orthopoxvirus vaccinia, BSC-1, 16 h, read-out: EC50, plaque reduction of vD4-VV rescue virus
# [5] = Half-life stability in mouse liver microsomes; assay type: in vitro ADME; details: for half-life: mouse, liver microsomes
# [6] = tested on: 2-D keratinocyte cultures; test: Toxicity on 2-D keratinocyte cultures; assay type: cell-based; details: at the concentrations used in the 3-D culture experiment
# mD4 [7] = molecular target: T1, mD4; test: Binding to immobilized mD4 by SPR (Surface Plasmon Resonance); details: steady-state response, 1:1 binding model, 0-250 μM, 1% DMSO; read-out: binding affinity KD to mD4 protein by SPR
# Protocol: The binding of compound 2 to mD4 was determined by SPR. mD4 was immobilized onto a biosensor chip at ˜3500 RU, and compound 2 was injected at 0-250 μM in buffer with 1% DMSO. The binding affinity KD was determined from the plot of steady-state response (Req) against compound 2 concentrations and fitting to a 1:1 binding model (FIG. 10).
# mD4-VV hybrid virus [8] = test: mD4-VV infection of 3-D human skin organ culture (viral titer and histology); assay type: cell-based; details: for viral titer of mD4-VV in 3-D human skin organ culture: 3 days post infection, compared to DMSO drug vehicle
# [9] = BSC-1, 16 h, read-out: EC50, plaque reduction of mD4-VV hybrid virus
structure (smiles),measurement,setting,value
"O=c1[nH]c2ccc(NCc3ccccc3OCc3ccc(Cl)cc3)cc2[nH]1 [Compound 4, 5-[[2-[(4-chlorophenyl)methoxy]phenyl]methylamino]-1,3-dihydrobenzimidazol-2-one]",EC50,"mD4-VV hybrid virus [1]; BSC-1, read-out: EC50 (mD4-VV)",11 µM
"c1ccc(COc2ccccc2CNc2ccc(-c3cnco3)cc2)cc1 [Compound 13, N-[(2-benzyloxyphenyl)methyl]-4-oxazol-5-yl-aniline]",EC50,"mD4-VV hybrid virus [1]; BSC-1, read-out: EC50 (mD4-VV)",14.4 µM
"Oc1ccc(NCc2ccccc2OCc2ccccc2)cc1 [Compound 10, 4-[(2-benzyloxyphenyl)methylamino]phenol]",mD4-VV genomic DNA accumulation,mD4-VV hybrid virus [2],completely prevented
same,Thermal shift (ΔTm) of 6His-mD4,mD4 [3]; 10 μM compound,2.2 °C
same,Thermal shift (ΔTm) of 6His-mD4,mD4 [3]; 40 μM compound,3.3 °C
same,CC50,BSC-1 cells,175 µM
same,IC50,[4],28 µM
same,EC50,vD4-VV rescue virus,11 µM
same,EC50,mD4-VV hybrid virus [1]; [9],14 µM
same,EC50,"mD4-VV hybrid virus [1]; BSC-1, read-out: EC50 (mD4-VV)",35.6 µM
same,half-life,[5],6.7 min
"O=c1[nH]c2ccc(NCc3cc(Cl)ccc3OCc3ccccc3F)cc2[nH]1 [Compound 8, 5-[[5-chloro-2-[(2-fluorophenyl)methoxy]phenyl]methylamino]-1,3-dihydrobenzimidazol-2-one]",EC50,"mD4-VV hybrid virus [1]; BSC-1, read-out: EC50 (mD4-VV)",11 µM
"Oc1ccc(NCc2cc(Br)ccc2OCc2ccc(F)cc2)cc1 [Compound 1, 4-[[5-bromo-2-[(4-fluorophenyl)methoxy]phenyl]methylamino]phenol]",EC50,"mD4-VV hybrid virus [1]; BSC-1, read-out: EC50 (mD4-VV)",19.9 µM
"O=[N+]([O-])c1cccc(COc2ccccc2CNc2ccccc2O)c1 [Compound 11, 2-[[2-[(3-nitrophenyl)methoxy]phenyl]methylamino]phenol]",EC50,"mD4-VV hybrid virus [1]; BSC-1, read-out: EC50 (mD4-VV)",17.7 µM
"O=c1[nH]c2ccc(NCc3cc(Br)ccc3OCc3ccccc3)cc2[nH]1 [Compound 7, 5-[(2-benzyloxy-5-bromo-phenyl)methylamino]-1,3-dihydrobenzimidazol-2-one]",EC50,"mD4-VV hybrid virus [1]; BSC-1, read-out: EC50 (mD4-VV)",11 µM
"O=c1[nH]c2ccc(NCc3ccccc3OCc3ccc(F)cc3)cc2[nH]1 [Compound 6, 5-[[2-[(4-fluorophenyl)methoxy]phenyl]methylamino]-1,3-dihydrobenzimidazol-2-one]",EC50,"mD4-VV hybrid virus [1]; BSC-1, read-out: EC50 (mD4-VV)",13.9 µM
"NS(=O)(=O)c1ccc(NCc2cc(Cl)ccc2OCc2ccccc2)cc1 [Compound 3, 4-[(2-benzyloxy-5-chloro-phenyl)methylamino]benzenesulfonamide]",EC50,"mD4-VV hybrid virus [1]; BSC-1, read-out: EC50 (mD4-VV)",13.9 µM
"Oc1ccc(NCc2ccccc2OCc2ccccc2)c(F)c1 [Compound 12, 4-[(2-benzyloxyphenyl)methylamino]-3-fluoro-phenol]",EC50,"mD4-VV hybrid virus [1]; BSC-1, read-out: EC50 (mD4-VV)",19.4 µM
"Nc1nc2c(ncn2COCCO)c(=O)[nH]1 [acyclovir, reference compound]",inhibitory effect in plaque reduction assay,mD4-VV hybrid virus [1],no inhibitory effect
"c1ccc(COc2ccccc2CNc2ccc3[nH]ncc3c2)cc1 [Compound 14, N-[(2-benzyloxyphenyl)methyl]-1H-indazol-5-amine]",EC50,"mD4-VV hybrid virus [1]; BSC-1, read-out: EC50 (mD4-VV)",7.9 µM
"O=c1[nH]c2ccc(NCc3ccccc3OCc3ccccc3)cc2[nH]1 [Compound 2, 5-[(2-benzyloxyphenyl)methylamino]-1,3-dihydrobenzimidazol-2-one]",toxicity on 2-D keratinocyte cultures,[6],not toxic
same,Kd,mD4 [7],32.8 µM
same,viral titer of mD4-VV in 3-D human skin organ culture,mD4-VV hybrid virus [8],blocks mD4-VV viral infection
same,viral titer of mD4-VV in 3-D human skin organ culture,mD4-VV hybrid virus [8]; listed as compound 2,significant decline in the viral titer
same,histological analysis of 3-D human skin organ culture infected with mD4-VV,"mD4-VV hybrid virus [8]; H&E stained cross-section, 3 days after infection",abundant population of stained keratinocytes was observed; also recorded: protection of the 3-D human skin organ culture
same,blocking processive DNA synthesis in vitro,[4],specific blocking processive DNA synthesis in vitro
same,EC50,mD4-VV hybrid virus [1]; [9],3 µM
same,EC50,"mD4-VV hybrid virus [1]; BSC-1, read-out: EC50 (mD4-VV)",10 µM
same,increase of half-life in mouse liver microsomes above compound 10,[5]; compound 2 versus compound 10,greater than 5 fold
same,half-life,[5],36 min
"O=[N+]([O-])c1cccc(COc2ccccc2CNc2ccc(O)cc2)c1 [Compound 9, 4-[[2-[(3-nitrophenyl)methoxy]phenyl]methylamino]phenol]",EC50,"mD4-VV hybrid virus [1]; BSC-1, read-out: EC50 (mD4-VV)",13.3 µM
